Measured values from ChEMBL document CHEMBL5579826, “Discovery of autophagy-tethering compounds as potent NLRP3 degraders for IBD Immunotherapy” (Eur J Med Chem, 2024).

Columns and labels:
[1] = biological target: Interleukin-1 beta (Homo sapiens) (UniProt P01584); assay: Inhibition of IL-1beta in PMA-differentiated human THP-1 cells at 100 nM co-incubated with compound and LPS for 24 hrs by ELISA relative to control; format: cell-based
[2] = biological target: Interleukin-1 beta (Homo sapiens) (UniProt P01584); assay: Inhibition of IL-1beta in PMA-differentiated human THP-1 cells at 200 nM co-incubated with compound and LPS for 24 hrs by ELISA relative to control; format: cell-based

Chain of Interleukin-1 beta (Homo sapiens) (P01584 117-269 limits assumed): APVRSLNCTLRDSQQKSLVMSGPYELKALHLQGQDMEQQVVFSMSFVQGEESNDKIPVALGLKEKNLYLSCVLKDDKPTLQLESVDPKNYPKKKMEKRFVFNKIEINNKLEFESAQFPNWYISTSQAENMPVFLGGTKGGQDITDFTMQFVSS

Row | Structure (SMILES) | inhibition [1] [%] | inhibition [2] [%]
1 | COc1ccc(Cl)cc1C(=O)NCCc1ccc(S(=O)(=O)NCCOCCOCCN2C(=O)/C(=C/c3cc(Br)c(O)c(OC)c3)c3cc(Br)ccc32)cc1 | 11 | 43.1
2 | COc1cc(/C=C2/C(=O)N(CCOCCOCCOc3ccc(S(=O)(=O)NC(=O)Nc4c5c(cc6c4CCC6)CCC5)cc3)c3ccc(Br)cc32)cc(Br)c1O | 16.5 | 39.1
3 | COc1cc(/C=C2/C(=O)N(CCCCCCCCCCCCOc3ccc(S(=O)(=O)NC(=O)Nc4c5c(cc6c4CCC6)CCC5)cc3)c3ccc(Br)cc32)cc(Br)c1O | 20.4 | 35.3
4 | O=C(Nc1c2c(cc3c1CCC3)CCC2)NS(=O)(=O)c1ccc(OCCOCCOCCOCCN2C(=O)/C(=C/c3cc(Br)c(O)c(Br)c3)c3cc(Br)ccc32)cc1 | 6.7 | 66.6
5 | COc1ccc(Cl)cc1C(=O)NCCc1ccc(S(=O)(=O)NCCCCCCCCCCN2C(=O)/C(=C/c3cc(Br)c(O)c(OC)c3)c3cc(Br)ccc32)cc1 | 7.3 | 28

Next, values leading:

Row | inhibition [1] [%] | inhibition [2] [%] | Structure (SMILES)
6 | 43.1 | 48.5 | O=C(Nc1c2c(cc3c1CCC3)CCC2)NS(=O)(=O)c1ccc(OCCCCN2C(=O)/C(=C/c3cc(Br)c(O)c(Br)c3)c3cc(I)ccc32)cc1
7 | 50.5 | 41.7 | O=C(Nc1c2c(cc3c1CCC3)CCC2)NS(=O)(=O)c1ccc(OCCOCCOCCN2C(=O)/C(=C/c3cc(Br)c(O)c(Br)c3)c3cc(I)ccc32)cc1
8 | 40.1 | 7.9 | O=C(Nc1c2c(cc3c1CCC3)CCC2)NS(=O)(=O)c1ccc(OCCCCCCCCCCCCN2C(=O)/C(=C/c3cc(Br)c(O)c(Br)c3)c3cc(I)ccc32)cc1
9 | 70.4 | 98.2 | O=C(Nc1c2c(cc3c1CCC3)CCC2)NS(=O)(=O)c1ccc(OCCOCCN2C(=O)/C(=C/c3cc(Br)c(O)c(Br)c3)c3cc(I)ccc32)cc1
10 | 14.8 | 19.5 | O=C(Nc1c2c(cc3c1CCC3)CCC2)NS(=O)(=O)c1ccc(OCCCCCCCCCCCCN2C(=O)/C(=C/c3cc(Br)c(O)c(Br)c3)c3cc(Br)ccc32)cc1
11 | 19.2 | 40.8 | COc1cc(/C=C2/C(=O)N(CCCCOc3ccc(S(=O)(=O)NC(=O)Nc4c5c(cc6c4CCC6)CCC5)cc3)c3ccc(Br)cc32)cc(Br)c1O
12 | 50.4 | 36.2 | COc1ccc(Cl)cc1C(=O)NCCc1ccc(S(=O)(=O)NCCCCCN2C(=O)/C(=C/c3cc(Br)c(O)c(OC)c3)c3cc(Br)ccc32)cc1
